The values below come from patent publication US10172962B2, “Macromolecular delivery systems for non-invasive imaging, evaluation and treatment of arthritis and other inflammatory diseases” (University of Utah Research Foundation, priority 2004, dated 2019).

Format in all cases: in vivo, rat
For series [1], the system named is AIA rats. Kind of series: Treatment of AIA rats: ankle joint swelling (caliper diameter). As for the experimental part: (§1) Male Lewis rats (175-200 g) were obtained from Charles River Laboratories (Portage, Mich.) and allowed to acclimate for at least one week. To induce arthritis, Mycobacterium Tuberculosis H37Ra (1 mg) and LA (5 mg) were mixed in paraffin oil (100 μL), sonicated and s.c. injected into the base of the rat's tail (20). The rats were then randomized into 3 rats/group. The progression of the joint inflammation was followed by measuring the diameter of the ankle joint with calipers. Special care was given to the rats as the inflammation developed to ensure availability and access to water and food. The MRI contrast agents used for the study were injected directly into the jugular vein while the animal was anesthetized with Ketamine and Xylazine.
. Hydrazine was used as the targeting moiety, as it may bind to negative charged moieties on cartilage. The anti-arthritic drug, dexamethasone, was linked to the polymer backbone (P-Dex) via a pH sensitive hydrozone bond as illustrated in FIG. 6. The polymer with the hydrazine and dexamethasone attached was then injected into AIA rats (4/group) on day 13 after the induction of arthritis. A single dose of 10 mg (P-Dex)/kg was given. […]

The subject of series [2] is AIA rats. Briefly: Treatment of AIA rats: bone mineral density by peripheral dual x-ray absorptiometry. Conditions: 7/group, FIG. 8. As for the experimental part: The bone mineral density (BMD) of the bones in the arthritic joints was measured by peripheral dual x-ray absorptiometry (pDXA, Norland Medical Systems) adapted for small animals. For this the intact hind limbs were used and the scan region included the ankle and foot bones. The coefficient of variation between measurements was less than 1%.
One of the significant impacts of rheumatoid arthritis inflammation is the damage to the bone in the joints, which is evident in FIG. 8 of the animals with no treatment (saline). […] However, such improvement can be greatly strengthened if Dex is conjugated to HPMA copolymer. […] A more dynamic factor to consider in the bone metabolism is the extent of bone erosion. The bone eroded surface directly correlates with the recruitment and activity of osteoclasts, which are the cells responsible for bone resorption and the development of bone damage. In FIG. 9, the bone erosion surface data for all the treatment groups is summarized. […] The histology analysis of the arthritic joints with different treatments also confirmed the superiority of the P-Dex treatment (FIG. 10).

For a further series, the system named is healthy rats. Briefly: Evans blue dye injection in healthy control rats. The settings on record: EB 10 mg/kg tail vein. As for the experimental part: (§2) Evans blue dye (EB, 10 mg/kg in saline) was injected into healthy and AIA rats via the tail vein. The extravasation and accumulation of dye in the areas of joint inflammation could be visually observed as appearance of the blue pigment. Photographs of the ankle and paws were taken before and 8 hours after injection.
For this experiment, EB was injected into the rats 15 days after injection of the adjuvant. By this time, there is a robust inflammatory reaction evident in the ankle joints. […] Some deep blue spots were also observed on some digits of the paw. Photographs taken before and after injection of the EB dye confirm that the areas with dye accumulation correspond to those with marked inflammation.

Series [3] deals with AIA rats. Briefly: Visualization of plasma albumin accumulation with Evans blue dye in AIA rats. As for the experimental part: as §1, §2
For this experiment, EB was injected into the rats 15 days after injection of the adjuvant. By this time, there is a robust inflammatory reaction evident in the ankle joints. […] Some deep blue spots were also observed on some digits of the paw. […]

Consider `C[C@@H]1C[C@H]2[C@@H]3CCC4=CC(=O)C=C[C@]4(C)[C@@]3(F)[C@@H](O)C[C@]2(C)[C@@]1(O)C(=O)COP(=O)(O)O` [Dex, Dexamethasone sodium phosphate], for which, in the series with AIA rats [1] (P-Dex single dose 10 mg/kg day 13, Dex same dose divided in 4 daily doses day 13-16), the “ankle joint swelling after the injections on day 13” value was “dramatic decrease of ankle joint swelling”. Moreover, in the series with AIA rats [1] (P-Dex single dose day 13, Dex 4 daily doses day 13-16), the “course of inflammation after cessation of the daily Dex injections” value is given as “the inflammation rapidly got worse”. In addition, the “bone mineral density (BMD) / bone preservation of the arthritic joints” value with AIA rats [2] is on record as “can slow bone erosion”.

Consider `Cc1cc(-c2ccc(/N=N/c3ccc4c(S(=O)(=O)O)cc(S(=O)(=O)O)c(N)c4c3O)c(C)c2)ccc1/N=N/c1ccc2c(S(=O)(=O)O)cc(S(=O)(=O)O)c(N)c2c1O` [EB, Evans blue], for which the “localization of dye to joint areas” value in the series with healthy rats is given as “the dye was not localized to joint areas”. Also, the “accumulation of dye in inflamed paws” value with AIA rats [3] (AIA rats, EB 10 mg/kg tail vein, 15 days after adjuvant) is “gradual accumulation of blue color in the inflamed hind paw and front paws”. Moreover, the “nonspecific transfer of dye to other tissues” value with AIA rats [3] (organs including liver and heart) is reported as “a slight blue staining was evident in some organs”.
